Source: publication PMC5855630, “The Design and Development of Potent Small Molecules as Anticancer Agents Targeting EGFR TK and Tubulin Polymerization” (International Journal of Molecular Sciences, 2018)
“And” between values parts separate entries of the source, which are not always exact repeats. Identical values can stand only once.

Assays:
[1] = tested on: MCF-7 breast cancer cell line; assay: MTT cancer cell antiproliferative assay, MCF-7; format: cell-based; conditions: Homo sapiens, MCF7, 24 h treatment
Experimental: (§1) The newly synthesized compounds 4a–e, 6a–c and 9a–d were evaluated for their in vitro anticancer activity against two breast cancer cell lines; Michigan cancer foundation-7 (MCF-7) and M.D. Anderson metastasis breast cancer-231 (MDA-MB-231) according to (3-(4,5-dimethylthiazole-2-yl)-2,5-diphenyltetrazolium bromide) tetrazolium (MTT) assay method by using erlotinib as positive tyrosine kinase (TK) drug.
(§2) The in vitro anticancer activities of the target compounds against two breast cancer cell lines; luminal human breast adenocarcinoma (estrogen-receptor (ER) and progesterone-receptor (PR)) positive MCF-7 and negative human breast cancer (MDA-MB-231) cell lines were evaluated as described with some modifications. Cell line cells were obtained from American Type Culture Collection, cells was cultured using DMEM (Invitrogen Life Technologies, Waltham, MA, USA) supplemented with 10% FBS (Hyclone, Logan, UT, USA), 10 µg/mL of insulin (Sigma, St. Louis, MO, USA), and 1% penicillin-streptomycin. All of the other chemical sand reagents were from (Sigma, St. Louis, MO, USA). The cells […] were sub-cultured into a 96-well plate with […] per well in medium, at 37 °C, 5% CO2 and 95% air atmosphere, before being treated with or without various concentrations of test compounds, each in triplicate for 24 h. At the end of the incubation, the cells were harvested and washed with PBS. 20 µL of MTT was added to each well and incubated for 2 h before 200 µL DMSO was added. The absorbance was measured on an ELISA reader (Multiskan EX, Lab systems, Waltham, MA, USA) at a test wavelength of 570 nm.

[2] = tested on: MDA-MB-231 breast cancer cell line; assay: MTT cancer cell antiproliferative assay, MDA-MB-231; format: cell-based, human; conditions: 24 h treatment
Experimental: as §1, §2

[3] = target: T1, epidermal growth factor receptor (EGFR) tyrosine kinase (TK) (Homo sapiens, UniProt P00533); assay: EGFR TK inhibition assay (HT Scan EGFR kinase assay kit); format: biochemical; conditions: GST-EGFR protein, 400 μM ATP
T1 construct: purchased Cell Signaling Technology
T1 sequence (P00533 25-1210): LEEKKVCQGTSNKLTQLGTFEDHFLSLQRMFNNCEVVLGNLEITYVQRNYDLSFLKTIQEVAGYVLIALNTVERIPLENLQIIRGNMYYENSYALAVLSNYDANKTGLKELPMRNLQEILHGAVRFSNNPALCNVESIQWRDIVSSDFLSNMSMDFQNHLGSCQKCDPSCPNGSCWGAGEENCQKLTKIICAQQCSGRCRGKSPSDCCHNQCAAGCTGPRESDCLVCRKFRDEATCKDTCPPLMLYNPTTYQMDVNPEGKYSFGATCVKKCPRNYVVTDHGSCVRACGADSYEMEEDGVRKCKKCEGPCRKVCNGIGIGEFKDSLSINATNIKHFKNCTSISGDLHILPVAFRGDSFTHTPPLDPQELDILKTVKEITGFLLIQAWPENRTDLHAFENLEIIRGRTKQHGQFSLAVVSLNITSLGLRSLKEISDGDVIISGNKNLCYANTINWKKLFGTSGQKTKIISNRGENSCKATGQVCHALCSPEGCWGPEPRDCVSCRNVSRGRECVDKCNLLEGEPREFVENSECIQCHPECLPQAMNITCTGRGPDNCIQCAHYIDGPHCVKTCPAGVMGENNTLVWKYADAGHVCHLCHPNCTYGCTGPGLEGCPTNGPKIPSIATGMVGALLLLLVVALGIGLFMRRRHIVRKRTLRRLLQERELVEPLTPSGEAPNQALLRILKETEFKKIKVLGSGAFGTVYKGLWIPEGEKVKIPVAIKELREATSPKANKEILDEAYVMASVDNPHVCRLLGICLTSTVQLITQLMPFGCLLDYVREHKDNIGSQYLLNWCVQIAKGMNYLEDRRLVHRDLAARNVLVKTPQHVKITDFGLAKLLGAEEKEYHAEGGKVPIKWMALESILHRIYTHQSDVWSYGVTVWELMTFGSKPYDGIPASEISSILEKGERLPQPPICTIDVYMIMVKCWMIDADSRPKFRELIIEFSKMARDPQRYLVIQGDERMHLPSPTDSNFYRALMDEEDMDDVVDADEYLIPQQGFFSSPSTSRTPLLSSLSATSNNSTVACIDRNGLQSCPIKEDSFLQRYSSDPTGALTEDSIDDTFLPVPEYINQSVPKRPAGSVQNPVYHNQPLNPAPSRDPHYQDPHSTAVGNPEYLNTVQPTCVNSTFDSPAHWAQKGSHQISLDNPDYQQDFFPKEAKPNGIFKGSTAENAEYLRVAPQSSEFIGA
Experimental: The compound (4b) bears flexible benzylamine terminal moiety, while the (6a) and (6c) derivatives bear sulphonamide moieties and 9a–b with Schiff fragments.
EGFR kinase activity was measured by HT Scan EGFR kinase assay kits (Cell Signaling Technology, Danvers, MA, USA). The experiments were done following the manufacturer’s directions. […] Strapavidin-coated 96-well plates was used to take phosphorylated substrate. Anti-phosphotyrosine and europium-labeled secondary antibodies (DELFIA, Perkin-Elmer, Akron, OH, USA) was used to monitor the level of phosphorylation. At the end of the assay, the enrichment solution was added and enzyme activity was assessed in the Wallac Victor II 1420 micro-plate reader (Abcam, Milton, Cambridge, UK) and […].

[4] = target: tubulin polymerization (Tubulin Beta, Tubb) (Homo sapiens, UniProt P07437+P68363); assay: Tubulin polymerization inhibition (ELISA for Tubulin Beta); format: biochemical
Sequence of tubulin polymerization (Tubulin Beta, Tubb) (P07437 whole entry): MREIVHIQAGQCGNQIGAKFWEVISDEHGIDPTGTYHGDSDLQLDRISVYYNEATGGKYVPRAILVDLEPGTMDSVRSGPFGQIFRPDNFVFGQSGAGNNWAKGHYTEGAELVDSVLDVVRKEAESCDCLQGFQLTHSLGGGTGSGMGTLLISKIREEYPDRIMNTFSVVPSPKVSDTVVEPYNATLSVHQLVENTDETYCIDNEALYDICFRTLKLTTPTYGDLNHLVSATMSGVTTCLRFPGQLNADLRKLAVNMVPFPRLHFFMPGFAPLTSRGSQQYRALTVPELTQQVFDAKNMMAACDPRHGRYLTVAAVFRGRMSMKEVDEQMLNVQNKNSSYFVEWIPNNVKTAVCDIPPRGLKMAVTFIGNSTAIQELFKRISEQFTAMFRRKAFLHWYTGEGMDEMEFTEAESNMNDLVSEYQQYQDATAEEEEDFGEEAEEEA
Sequence of tubulin polymerization (Tubulin Beta, Tubb) (P68363 whole entry): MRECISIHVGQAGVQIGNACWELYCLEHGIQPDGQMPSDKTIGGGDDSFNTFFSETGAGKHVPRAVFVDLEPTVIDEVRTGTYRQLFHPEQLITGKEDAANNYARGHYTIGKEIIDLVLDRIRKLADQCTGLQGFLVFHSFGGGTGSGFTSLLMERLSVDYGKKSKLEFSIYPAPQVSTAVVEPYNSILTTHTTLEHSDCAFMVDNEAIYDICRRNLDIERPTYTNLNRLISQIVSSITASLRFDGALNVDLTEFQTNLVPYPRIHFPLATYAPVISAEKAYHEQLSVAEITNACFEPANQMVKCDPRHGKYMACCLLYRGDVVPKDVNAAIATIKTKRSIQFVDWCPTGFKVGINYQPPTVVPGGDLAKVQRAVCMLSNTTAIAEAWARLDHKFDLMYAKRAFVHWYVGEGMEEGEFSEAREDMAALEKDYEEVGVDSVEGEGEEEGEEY
Source text: Microtubule-targeting agents affect microtubule function and stop mitosis, resulting in necrosis and apoptosis and eventually cell death.
This assay was done according to reported procedures

[5] = tested on: MDA-MB-231 cells; assay: Annexin V-FITC apoptosis analysis; format: cell-based, human; conditions: IC50 concentration, 48 h
Source text: Apoptosis induction was examined in treated MDA-MB-231 cells by use of an Annexin V-fluorescine isothiocyanate (FITC) (Abcam, Milton, Cambridge, UK). The treatment of the cells with target compound (6c) and erlotinib drug with antiproliferative detected concentrations have been applied for comparison. […] The apoptosis-inducing effect of target compound was investigated by flow cytometric analysis of MDA-MB-231 cells stained with Annexin V and propidium iodide. […] This might be extra behavior interpreting the potent cytotoxic effect of such compounds.
This analysis was performed following the reported procedures.

## O=C(Nc1ccccc1C(=O)N/N=C/c1ccc(O)cc1O)c1ccco1 [Compound 9b, (E)-N-{2-[2-(2,4-Dihydroxybenzylidene)hydrazine-1-carbonyl]phenyl}furan-2-carboxamide]
[1]
  IC50: 0.78 ± 0.11 nM
[2]; Homo sapiens, MDA-MB-231, 24 h
  IC50: 0.48 ± 0.01 nM
[3]
  IC50: 31 nM and 31.2 nM
[4]
  IC50: 108.4 ± 0.14 nM

## O=C(Nc1ccccc1C(=O)Nc1ccc(S(=O)(=O)Nc2ccccn2)cc1)c1ccco1 [Compound 6b, N-{2-[(4-(N-(Pyridin-2-Yl)sulfamoyl]phenyl)carbamoyl)phenyl}furan-2-carboxamide]
[1]
  IC50: 0.065 nM
[2]; Homo sapiens, MDA-MB-231, 24 h
  IC50: 4.45 ± 0.3 nM
other
  melting point: 209 to 211 °C

## NS(=O)(=O)c1ccc(NC(=O)c2ccccc2NC(=O)c2ccco2)cc1 [Compound 6a, N-{2-[(4-Sulfamoylphenyl)carbamoyl]phenyl}furan-2-carboxamide]
[1]
  IC50: 0.62 ± 0.12 nM
[2]; Homo sapiens, MDA-MB-231, 24 h
  IC50: 0.66 ± 0.11 nM
other
  melting point: 188 to 189 °C
[3]
  IC50: 85.4 ± 0.32 nM
[4]
  IC50: 87.6 ± 0.13 nM

## O=C(Nc1ccccc1C(=O)N/N=C/c1ccccn1)c1ccco1 [Compound 9c, (E)-N-{2-[2-(Pyridin-2-ylmethylene)hydrazine-1-carbonyl]phenyl}furan-2-carboxamide]
[1]
  IC50: 0.15 ± 0.15 nM
[2]; Homo sapiens, MDA-MB-231, 24 h
  IC50: 14.8 ± 0.2 nM

## O=C(Nc1ccccc1C(=O)NCc1ccc(Cl)cc1)c1ccco1 [Compound 4d, N-{2-[(4-Chlorobenzyl)carbamoyl]phenyl}furan-2-carboxamide]
[1]
  IC50: 0.64 ± 0.25 nM
[2]; Homo sapiens, MDA-MB-231, 24 h
  IC50: 3.29 ± 0.14 nM
other
  melting point: 213 to 215 °C

## Cc1ccc(CNC(=O)c2ccccc2NC(=O)c2ccco2)cc1 [Compound 4e, N-{2-[(4-Methylbenzyl)carbamoyl]phenyl}furan-2-carboxamide]
[1]
  IC50: 0.88 ± 0.25 nM
[2]; Homo sapiens, MDA-MB-231, 24 h
  IC50: 5.59 ± 0.2 nM
other
  melting point: 175 to 178 °C

## COc1ccc(CNC(=O)c2ccccc2NC(=O)c2ccco2)cc1 [Compound 4b, N-{2-[(4-Methoxybenzyl)carbamoyl]phenyl}furan-2-carboxamide]
[1]
  IC50: 0.45 ± 0.12 nM
[2]; Homo sapiens, MDA-MB-231, 24 h
  IC50: 0.76 ± 0.11 nM
other
  melting point: 207 to 209 °C
[3]
  IC50: 31 nM and 30.5 nM
[4]
  IC50: 140.8 ± 0.15 nM

## O=C(Nc1ccccc1C(=O)Nc1ccc(S(=O)(=O)Nc2nccs2)cc1)c1ccco1 [Compound 6c, N-{2-[(4-(N-(Thiazol-2-Yl)sulfamoyl)phenyl)carbamoyl]phenyl}furan-2-carboxamide]
[5]
  Apoptosis induction (Annexin V / propidium iodide flow cytometry): accumulation of apoptotic cells
[1]
  IC50: 0.34 ± 0.2 nM
[2]
  IC50: 0.32 ± 0.21 nM
[2]; Homo sapiens, MDA-MB-231, 24 h
  IC50: 0.4 nM
[3]
  IC50: 110 ± 0.14 nM
[4]
  IC50: 155 ± 0.25 nM

## O=C(Nc1ccccc1C(=O)N/N=C/c1ccc(Cl)cc1Cl)c1ccco1 [Compound 9d, (E)-N-{2-[2-(2,4-Dichlorobenzylidene)hydrazine-1-carbonyl]phenyl}furan-2-carboxamide]
[1]
  IC50: 0.48 ± 0.14 nM
[2]; Homo sapiens, MDA-MB-231, 24 h
  IC50: 2.53 ± 0.12 nM
other
  melting point: 212 to 214 °C

## COC(=O)c1ccccc1NC(=O)c1ccco1 [Compound 2, Methyl 2-(Furan-2-carboxamido)benzoate]
[1]
  IC50: 2.43 ± 0.2 nM
[2]; Homo sapiens, MDA-MB-231, 24 h
  IC50: 1.21 ± 0.25 nM
other
  melting point: 190 to 192 °C

## O=C(Nc1ccccc1C(=O)N/N=C/c1ccccc1)c1ccco1 [Compound 9a, (E)-N-{2-[(2-Benzylidenehydrazine)-1-carbonyl]phenyl}furan-2-carboxamide]
[1]
  IC50: 0.51 ± 0.16 nM
[2]; Homo sapiens, MDA-MB-231, 24 h
  IC50: 0.68 ± 0.02 nM
other
  melting point: 205 to 207 °C
[3]
  IC50: 59.3 ± 0.11 nM
[4]
  IC50: 410.6 ± 0.12 nM

## O=C(Nc1ccccc1C(=O)NCc1ccc(F)cc1)c1ccco1 [Compound 4c, N-{2-[(4-Fluorobenzyl)carbamoyl]phenyl}furan-2-carboxamide]
[1]
  IC50: 2.59 ± 0.32 nM
[2]; Homo sapiens, MDA-MB-231, 24 h
  IC50: 3.11 ± 0.5 nM
other
  melting point: 218 to 220 °C

## NNC(=O)c1ccccc1NC(=O)c1ccco1 [Compound 7, N-[2-(Hydrazinecarbonyl)phenyl]furan-2-carboxamide]
[1]
  IC50: 1.91 ± 0.11 nM
[2]; Homo sapiens, MDA-MB-231, 24 h
  IC50: 35.85 ± 0.12 nM
other
  melting point: 210 to 212 °C

## O=C(Nc1ccccc1C(=O)NCc1ccccc1)c1ccco1 [Compound 4a]
[1]
  IC50: 3.35 ± 0.11 nM
[2]; Homo sapiens, MDA-MB-231, 24 h
  IC50: 8.82 ± 0.14 nM
other
  melting point: 230 to 232 °C

## C#Cc1cccc(Nc2ncnc3cc(OCCOC)c(OCCOC)cc23)c1 [Erlotinib, reference compound]
[5]
  Apoptosis induction (Annexin V / propidium iodide flow cytometry): accumulation of apoptotic cells
[1]
  IC50: 0.45 ± 0.08 nM
[2]; Homo sapiens, MDA-MB-231, 24 h
  IC50: 3.74 ± 0.01 nM
